{
  "source": "BindingDB's records for doi:10.1016/s0960-894x(02)00382-7",
  "about": "(Novartis Pharma, 2002)",
  "data": [
    {"molecular_target": "Substance-P receptor (Bos taurus)", "assay": "inhibition of [3H]Sar-SP binding to Tachykinin receptor 1 of bovine retina membranes", "units": {"IC50": "nM"}, "values": [
      {"smiles": "COc1cc(C(=O)Nc2cc(C(=O)NC3CCCCNC3=O)ccc2-c2ccc(Cl)cc2)cc(OC)c1OC", "note": "(centres undefined) [4'-Chloro-2-(3,4,5-trimethoxy-benzoylamino)-biphenyl-4-carboxylic acid (2-oxo-azepan-3-yl)-amide]", "IC50": 0.7},
      {"smiles": "CN(C(=O)c1cc(C(F)(F)F)cc(C(F)(F)F)c1)c1cc(C(=O)NC2CCCCC2)ccc1-c1ccc(F)cc1", "note": "[2-[(3,5-Bis-trifluoromethyl-benzoyl)-methyl-amino]-4'-fluoro-biphenyl-4-carboxylic acid cyclohexylamide]", "IC50": 34},
      {"smiles": "CN(C)CCCNC(=O)c1ccc(-c2ccc(Cl)cc2)c(N(C)C(=O)c2cc(C(F)(F)F)cc(C(F)(F)F)c2)c1", "note": "[2-[(3,5-Bis-trifluoromethyl-benzoyl)-methyl-amino]-4'-chloro-biphenyl-4-carboxylic acid (3-dimethylamino-propyl)-amide]", "IC50": 1},
      {"smiles": "CN(C(=O)c1cc(C(F)(F)F)cc(C(F)(F)F)c1)c1cc(C(=O)N[C@@H]2CCCCNC2=O)ccc1-c1ccc(Cl)cc1", "IC50": 2.7},
      {"smiles": "CN(C(=O)c1cc(C(F)(F)F)cc(C(F)(F)F)c1)c1cc(C(=O)N[C@@H]2CCCCNC2=O)ccc1-c1ccc(Cl)c(Cl)c1", "IC50": 0.8},
      {"smiles": "CN(C(=O)c1cc(C(F)(F)F)cc(C(F)(F)F)c1)c1cc(C(=O)N[C@@H]2CCCCNC2=O)ccc1-c1ccc(F)cc1", "IC50": 1},
      {"smiles": "CN(C)C(=O)c1ccc(-c2ccc(Cl)cc2)c(N(C)C(=O)c2cc(C(F)(F)F)cc(C(F)(F)F)c2)c1", "note": "[2-[(3,5-Bis-trifluoromethyl-benzoyl)-methyl-amino]-4'-chloro-biphenyl-4-carboxylic acid dimethylamide]", "IC50": 4},
      {"smiles": "COc1cc(C(=O)N(C)c2cc(C(=O)N[C@@H]3CCCCNC3=O)ccc2-c2ccc(Cl)cc2)cc(OC)c1OC", "IC50": 13},
      {"smiles": "Cc1ccc(-c2ccc(C(=O)N[C@@H]3CCCCNC3=O)cc2N(C)C(=O)c2cc(C(F)(F)F)cc(C(F)(F)F)c2)cc1", "IC50": 6}
    ]}
  ]
}
